According to PMC3699648, “Replacement of the Human Topoisomerase Linker Domain with the Plasmodial Counterpart Renders the Enzyme Camptothecin Resistant” (PLoS ONE, 2013):

Molecular target: T1, hTop1 (Homo sapiens, UniProt P11387)
T1 construct: gene TOP1; expressed in S. cerevisiae top1 null EKY3, anti-FLAG purified
T1 sequence (P11387 1-765): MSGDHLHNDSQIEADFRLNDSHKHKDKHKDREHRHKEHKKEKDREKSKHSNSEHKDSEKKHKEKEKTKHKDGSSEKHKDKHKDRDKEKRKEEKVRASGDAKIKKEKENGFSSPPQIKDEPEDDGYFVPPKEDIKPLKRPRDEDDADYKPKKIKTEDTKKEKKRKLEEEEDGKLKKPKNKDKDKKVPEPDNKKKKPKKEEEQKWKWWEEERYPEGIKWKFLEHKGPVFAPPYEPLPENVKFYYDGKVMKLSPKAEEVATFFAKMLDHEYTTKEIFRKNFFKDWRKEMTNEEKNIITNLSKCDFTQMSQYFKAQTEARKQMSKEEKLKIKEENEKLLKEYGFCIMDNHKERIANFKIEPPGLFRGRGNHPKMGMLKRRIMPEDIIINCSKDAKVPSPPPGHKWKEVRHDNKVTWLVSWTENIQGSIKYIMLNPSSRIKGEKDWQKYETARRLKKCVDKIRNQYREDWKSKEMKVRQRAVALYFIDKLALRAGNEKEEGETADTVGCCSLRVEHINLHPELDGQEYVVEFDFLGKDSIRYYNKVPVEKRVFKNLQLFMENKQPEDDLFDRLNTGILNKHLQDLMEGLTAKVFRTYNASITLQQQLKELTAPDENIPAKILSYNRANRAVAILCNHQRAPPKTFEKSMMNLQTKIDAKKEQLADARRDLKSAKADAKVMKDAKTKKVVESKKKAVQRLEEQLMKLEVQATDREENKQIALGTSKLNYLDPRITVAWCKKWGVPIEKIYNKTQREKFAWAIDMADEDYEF
Assay: stabilisation of DNA cleavage complex (CL25/CP25, gel); also relaxation and religation assays
Assay type: biochemical
Conditions: 100 µM CPT, 20 nM duplex CL25/CP25, 1 min, 25 °C, pH 7.5, 5 mM MgCl2, 5 mM CaCl2, 150 mM KCl; binds covalent enzyme-DNA complex

## CC[C@@]1(O)C(=O)OCc2c1cc1n(c2=O)Cc2cc3ccccc3nc2-1 [CPT, camptothecin]
  % cleavage complex at 100 μM: In presence of CPT the hTop1 cleavage is strongly increased
